Assays:
[1] = Stability of DPTM in plasma, tissue homogenates, urine and feces (QC samples); assay type: physicochemical, rat
Protocol: Stability of DPTM and IS was examined by comparing the analytes’ concentrations in freshly prepared samples with those of samples maintained under different conditions, including the 24 h storage at room temperature, three freeze and thaw cycles, and storage at −70 °C for 4 weeks, respectively. Analyzing three levels of QC samples were used to assess the stability (accuracy and precision) with six replicates.
For the construction of calibration curves, 20 μL of each corresponding standard working solution (0.05, 0.2, 0.5, 1, 2, 5, 10, 20 and 40 μg/mL) was evaporated to dryness by nitrogen at 40 °C. The calibration standards (5, 20, 50, 100, 200, 500, 1000, 2000 and 4000 ng/mL) were prepared by adding 200 μL of blank plasma, various tissue homogenates (including heart, liver, spleen, lung, kidney, large intestine, small intestine, ileum, cecum, bladder, brain, jejunum and colon) or urine and feces to the residue, respectively. Quality control (QC) samples (10, 200 and 3000 ng/mL) were obtained by the same way as the calibration standards. All solutions were stored at −70 °C before use for no longer than 4 weeks.

[2] = tested on: Gram-positive bacteria, including methicillin-resistant Staphylococcus aureus (MRSA), Staphylococcus aureus, Bacillus subtilis; parameters: method as in PMID 27940400; details: S. aureus, B. subtilis; cited from earlier work

Stability RE ([1]; Bladder, 10 ng/mL, Freeze-thaw Cycles): 3.9% | Stability RE ([1]; Bladder, 10 ng/mL, Long-term (−70 °C, 4 Weeks)): 3.6% | Stability RE ([1]; Bladder, 10 ng/mL, Short-term (25 °C, 24 h)): 4.1% | Stability RE ([1]; Bladder, 200 ng/mL, Freeze-thaw Cycles): 5.1% | Stability RE ([1]; Bladder, 200 ng/mL, Long-term (−70 °C, 4 Weeks)): 5.1% | Stability RE ([1]; Bladder, 200 ng/mL, Short-term (25 °C, 24 h)): 1.9% | Stability RE ([1]; Bladder, 3000 ng/mL, Freeze-thaw Cycles): 3.5% | Stability RE ([1]; Bladder, 3000 ng/mL, Long-term (−70 °C, 4 Weeks)): 3.3% | Stability RE ([1]; Bladder, 3000 ng/mL, Short-term (25 °C, 24 h)): 3.1% | Stability RE ([1]; Brain, 10 ng/mL, Freeze-thaw Cycles): 4.9% | Stability RE ([1]; Brain, 10 ng/mL, Long-term (−70 °C, 4 Weeks)): 5.3% | Stability RE ([1]; Brain, 10 ng/mL, Short-term (25 °C, 24 h)): 1.1% | Stability RE ([1]; Brain, 200 ng/mL, Freeze-thaw Cycles): 6.5% | Stability RE ([1]; Brain, 200 ng/mL, Long-term (−70 °C, 4 Weeks)): 6.6% | Stability RE ([1]; Brain, 200 ng/mL, Short-term (25 °C, 24 h)): 3.3% | Stability RE ([1]; Brain, 3000 ng/mL, Freeze-thaw Cycles): 4.1% | Stability RE ([1]; Brain, 3000 ng/mL, Long-term (−70 °C, 4 Weeks)): 4.1% | Stability RE ([1]; Brain, 3000 ng/mL, Short-term (25 °C, 24 h)): 8.1% | Stability RE ([1]; Cecum, 10 ng/mL, Freeze-thaw Cycles): 7.2% | Stability RE ([1]; Cecum, 10 ng/mL, Long-term (−70 °C, 4 Weeks)): 6.4% | Stability RE ([1]; Cecum, 10 ng/mL, Short-term (25 °C, 24 h)): 6.7% | Stability RE ([1]; Cecum, 200 ng/mL, Freeze-thaw Cycles): 3.9% | Stability RE ([1]; Cecum, 200 ng/mL, Long-term (−70 °C, 4 Weeks)): 3.2% | Stability RE ([1]; Cecum, 200 ng/mL, Short-term (25 °C, 24 h)): 3.1% | Stability RE ([1]; Cecum, 3000 ng/mL, Freeze-thaw Cycles): −4.9% | Stability RE ([1]; Cecum, 3000 ng/mL, Long-term (−70 °C, 4 Weeks)): −6.4% | Stability RE ([1]; Cecum, 3000 ng/mL, Short-term (25 °C, 24 h)): −5.1% | Stability RE ([1]; Colon, 10 ng/mL, Short-term (25 °C, 24 h)): 5.4% | Stability RE ([1]; Ileum, 10 ng/mL, Freeze-thaw Cycles): −3.5% | Stability RE ([1]; Ileum, 10 ng/mL, Long-term (−70 °C, 4 Weeks)): 3.2% | Stability RE ([1]; Ileum, 10 ng/mL, Short-term (25 °C, 24 h)): 2.9% | Stability RE ([1]; Ileum, 200 ng/mL, Freeze-thaw Cycles): 5.2% | Stability RE ([1]; Ileum, 200 ng/mL, Long-term (−70 °C, 4 Weeks)): −5.1% | Stability RE ([1]; Ileum, 200 ng/mL, Short-term (25 °C, 24 h)): 1.7% | Stability RE ([1]; Ileum, 3000 ng/mL, Freeze-thaw Cycles): 3.3% | Stability RE ([1]; Ileum, 3000 ng/mL, Long-term (−70 °C, 4 Weeks)): 3.5% | Stability RE ([1]; Ileum, 3000 ng/mL, Short-term (25 °C, 24 h)): 3.1% | Stability RE ([1]; Jejunum, 10 ng/mL, Freeze-thaw Cycles): 6.1% | Stability RE ([1]; Jejunum, 10 ng/mL, Long-term (−70 °C, 4 Weeks)): 5.6% | Stability RE ([1]; Jejunum, 10 ng/mL, Short-term (25 °C, 24 h)): 7.2% | Stability RE ([1]; Jejunum, 200 ng/mL, Freeze-thaw Cycles): 7.3% | Stability RE ([1]; Jejunum, 200 ng/mL, Long-term (−70 °C, 4 Weeks)): 7.3% | Stability RE ([1]; Jejunum, 200 ng/mL, Short-term (25 °C, 24 h)): 7.5% | Stability RE ([1]; Jejunum, 3000 ng/mL, Freeze-thaw Cycles): −5.4% | Stability RE ([1]; Jejunum, 3000 ng/mL, Long-term (−70 °C, 4 Weeks)): −5.6% | Stability RE ([1]; Jejunum, 3000 ng/mL, Short-term (25 °C, 24 h)): −5.3% | Stability RE ([1]; Kidney, 10 ng/mL, Freeze-thaw Cycles): 3.7% | Stability RE ([1]; Kidney, 10 ng/mL, Long-term (−70 °C, 4 Weeks)): 3.5% | Stability RE ([1]; Kidney, 10 ng/mL, Short-term (25 °C, 24 h)): 3.4% | Stability RE ([1]; Kidney, 200 ng/mL, Freeze-thaw Cycles): 2.3% | Stability RE ([1]; Kidney, 200 ng/mL, Long-term (−70 °C, 4 Weeks)): 1.9% | Stability RE ([1]; Kidney, 200 ng/mL, Short-term (25 °C, 24 h)): 0.9% | Stability RE ([1]; Kidney, 3000 ng/mL, Freeze-thaw Cycles): 10.1% | Stability RE ([1]; Kidney, 3000 ng/mL, Long-term (−70 °C, 4 Weeks)): 9.9% | Stability RE ([1]; Kidney, 3000 ng/mL, Short-term (25 °C, 24 h)): 3.2% | Stability RE ([1]; Large intestine, 10 ng/mL, Freeze-thaw Cycles): 6.3% | Stability RE ([1]; Large intestine, 10 ng/mL, Long-term (−70 °C, 4 Weeks)): 6.9% | Stability RE ([1]; Large intestine, 10 ng/mL, Short-term (25 °C, 24 h)): 1.9% | Stability RE ([1]; Large intestine, 200 ng/mL, Freeze-thaw Cycles): 2.4% | Stability RE ([1]; Large intestine, 200 ng/mL, Long-term (−70 °C, 4 Weeks)): 2.2% | Stability RE ([1]; Large intestine, 200 ng/mL, Short-term (25 °C, 24 h)): 5.7% | Stability RE ([1]; Large intestine, 3000 ng/mL, Freeze-thaw Cycles): 3.1% | Stability RE ([1]; Large intestine, 3000 ng/mL, Long-term (−70 °C, 4 Weeks)): 3.5% | Stability RE ([1]; Large intestine, 3000 ng/mL, Short-term (25 °C, 24 h)): −0.9% | Stability RE ([1]; Liver, 10 ng/mL, Freeze-thaw Cycles): 3.3% | Stability RE ([1]; Liver, 10 ng/mL, Long-term (−70 °C, 4 Weeks)): 3.4% | Stability RE ([1]; Liver, 10 ng/mL, Short-term (25 °C, 24 h)): 2.9% | Stability RE ([1]; Liver, 200 ng/mL, Freeze-thaw Cycles): 3.4% | Stability RE ([1]; Liver, 200 ng/mL, Long-term (−70 °C, 4 Weeks)): 3.6% | Stability RE ([1]; Liver, 200 ng/mL, Short-term (25 °C, 24 h)): 3.3% | Stability RE ([1]; Liver, 3000 ng/mL, Freeze-thaw Cycles): 1.9% | Stability RE ([1]; Liver, 3000 ng/mL, Long-term (−70 °C, 4 Weeks)): 2.1% | Stability RE ([1]; Liver, 3000 ng/mL, Short-term (25 °C, 24 h)): 6.1% | Stability RE ([1]; Lung, 10 ng/mL, Freeze-thaw Cycles): 2.5% | Stability RE ([1]; Lung, 10 ng/mL, Long-term (−70 °C, 4 Weeks)): 2.9% | Stability RE ([1]; Lung, 10 ng/mL, Short-term (25 °C, 24 h)): 3.3% | Stability RE ([1]; Lung, 200 ng/mL, Freeze-thaw Cycles): 3.1% | Stability RE ([1]; Lung, 200 ng/mL, Long-term (−70 °C, 4 Weeks)): 3.5% | Stability RE ([1]; Lung, 200 ng/mL, Short-term (25 °C, 24 h)): 2.1% | Stability RE ([1]; Lung, 3000 ng/mL, Freeze-thaw Cycles): 7.6% | Stability RE ([1]; Lung, 3000 ng/mL, Long-term (−70 °C, 4 Weeks)): 7.5% | Stability RE ([1]; Lung, 3000 ng/mL, Short-term (25 °C, 24 h)): 1.3% | Stability RE ([1]; Small intestine, 10 ng/mL, Freeze-thaw Cycles): 4.9% | Stability RE ([1]; Small intestine, 10 ng/mL, Long-term (−70 °C, 4 Weeks)): 4.6% | Stability RE ([1]; Small intestine, 10 ng/mL, Short-term (25 °C, 24 h)): 1.3% | Stability RE ([1]; Small intestine, 200 ng/mL, Freeze-thaw Cycles): 3.2% | Stability RE ([1]; Small intestine, 200 ng/mL, Long-term (−70 °C, 4 Weeks)): 3.6% | Stability RE ([1]; Small intestine, 200 ng/mL, Short-term (25 °C, 24 h)): 3.7% | Stability RE ([1]; Small intestine, 3000 ng/mL, Freeze-thaw Cycles): 3.9% | Stability RE ([1]; Small intestine, 3000 ng/mL, Long-term (−70 °C, 4 Weeks)): 3.8% | Stability RE ([1]; Small intestine, 3000 ng/mL, Short-term (25 °C, 24 h)): 5.3% | Stability RE ([1]; Spleen, 10 ng/mL, Freeze-thaw Cycles): 3.6% | Stability RE ([1]; Spleen, 10 ng/mL, Long-term (−70 °C, 4 Weeks)): 3.3% | Stability RE ([1]; Spleen, 10 ng/mL, Short-term (25 °C, 24 h)): 3.7% | Stability RE ([1]; Spleen, 200 ng/mL, Freeze-thaw Cycles): 7.9% | Stability RE ([1]; Spleen, 200 ng/mL, Long-term (−70 °C, 4 Weeks)): 7.1% | Stability RE ([1]; Spleen, 200 ng/mL, Short-term (25 °C, 24 h)): 7.2% | Stability RE ([1]; Spleen, 3000 ng/mL, Freeze-thaw Cycles): 5.6% | Stability RE ([1]; Spleen, 3000 ng/mL, Long-term (−70 °C, 4 Weeks)): 5.7% | Stability RE ([1]; Spleen, 3000 ng/mL, Short-term (25 °C, 24 h)): 5.9% | results of stability experiments (% RE and % RSD) ([1]; plasma, tissue homogenates, urine and feces, 24 h at room temperature, three freeze and thaw cycles, −70 °C for 4 weeks): ≤ 15%
SMILES: C=CC1(C)CC(OC(=O)CSc2nc(N)cc(N)n2)C2(C)C(C)CCC3(CCC(=O)C32)C(C)C1O (stereo not drawn) [DPTM, 14-O-[(4,6-Diaminopyrimidine-2-yl)thioacetyl] mutilin]
in vitro activities against Gram-positive bacteria [2]: excellent in vitro activities

Reference: article PMC6413085, “A Validated HPLC-MS/MS Assay for 14-O-[(4,6-Diaminopyrimidine-2-yl)thioacetyl] Mutilin in Biological Samples and Its Pharmacokinetic, Distribution and Excretion via Urine and Feces in Rats” (Molecules, 2019)
